Experimental data published in US12655151B2, “Ion channel modulators” (Praxis Precision Medicines, Inc., priority 2019, dated 2026).

Target: T1, human NaV1.6 (hNaV1.6) (Homo sapiens, UniProt Q9UQD0)
T1 construct: expressed in transfected cells; host or cells: HEK-293 (G418 selection)
Assay: Modulation of late sodium current (INaL) at hNaV1.6, PatchXpress electrophysiology
Type: cell-based
Settings: HEK293, HEK-293 cells expressing recombinant human NaV1.6, late current evoked by 300 nM ATX-II, read-out: NaV 1.6 Assay Data (percent inhibition of INaL at hNaV1.6)
Experimental: Functional characterization of exemplary compounds to modulate INaL expressed by the NaV1.6 voltage-gated sodium channel was accomplished using the PatchXpress™ high throughput electrophysiology platform (Molecular Devices, Sunnyvale, CA). HEK-293 cells expressing recombinant, human NaV1.6 (hNaV1.6) were grown in DMEM/high-glucose Dulbecco's modified, 10% FBS, 2 mM sodium pyruvate, 10 mM HEPES and 400 μg/mL G418. Cells were grown to 50%-80% confluency prior to harvesting. Trypsinized cells were washed, allowed to recover for 1 hour and then resuspended in extracellular recording solution at a concentration of 1×10^6 cells/ml. The onboard liquid handling facility of the PatchXpress was used for dispensing cells and applying test compounds. NaV late currents were evoked by the application of 300 nM ATX-II. INaL was evoked by depolarizing pulses to 0 mV for 200 ms from a non-inactivating holding potential (e.g., −120 mV) at a frequency of 0.1 Hz. INaL amplitude and stability were determined by analyzing the mean current amplitude over the final 20 ms of the test pulse. Following steady state block with exemplary compounds (e.g., as described herein), a Na+ free solution containing an impermeant cation (e.g., Choline or NDMG) was added to confirm the identity of the sodium current. Percent steady-state inhibition of INaL was calculated as: […], where INaL_compound and INaL_control represent INaL recorded in the presence or absence of compound, respectively.
Results from this assay relating to percent inhibition of INaL at hNaV1.6 (measured using a procedure similar to described above but using HEK-293 cells expressing recombinant, human NaV 1.6 (h NaV 1.6) at 1 μM are summarized in Table 1 below. In this table, “A” indicates inhibition of less than 30%; “B” indicates inhibition of between about 30% to about 70%; and “C” indicates inhibition of greater than 70%. “N/A” indicates not available.

T1 sequence (Q9UQD0 whole entry): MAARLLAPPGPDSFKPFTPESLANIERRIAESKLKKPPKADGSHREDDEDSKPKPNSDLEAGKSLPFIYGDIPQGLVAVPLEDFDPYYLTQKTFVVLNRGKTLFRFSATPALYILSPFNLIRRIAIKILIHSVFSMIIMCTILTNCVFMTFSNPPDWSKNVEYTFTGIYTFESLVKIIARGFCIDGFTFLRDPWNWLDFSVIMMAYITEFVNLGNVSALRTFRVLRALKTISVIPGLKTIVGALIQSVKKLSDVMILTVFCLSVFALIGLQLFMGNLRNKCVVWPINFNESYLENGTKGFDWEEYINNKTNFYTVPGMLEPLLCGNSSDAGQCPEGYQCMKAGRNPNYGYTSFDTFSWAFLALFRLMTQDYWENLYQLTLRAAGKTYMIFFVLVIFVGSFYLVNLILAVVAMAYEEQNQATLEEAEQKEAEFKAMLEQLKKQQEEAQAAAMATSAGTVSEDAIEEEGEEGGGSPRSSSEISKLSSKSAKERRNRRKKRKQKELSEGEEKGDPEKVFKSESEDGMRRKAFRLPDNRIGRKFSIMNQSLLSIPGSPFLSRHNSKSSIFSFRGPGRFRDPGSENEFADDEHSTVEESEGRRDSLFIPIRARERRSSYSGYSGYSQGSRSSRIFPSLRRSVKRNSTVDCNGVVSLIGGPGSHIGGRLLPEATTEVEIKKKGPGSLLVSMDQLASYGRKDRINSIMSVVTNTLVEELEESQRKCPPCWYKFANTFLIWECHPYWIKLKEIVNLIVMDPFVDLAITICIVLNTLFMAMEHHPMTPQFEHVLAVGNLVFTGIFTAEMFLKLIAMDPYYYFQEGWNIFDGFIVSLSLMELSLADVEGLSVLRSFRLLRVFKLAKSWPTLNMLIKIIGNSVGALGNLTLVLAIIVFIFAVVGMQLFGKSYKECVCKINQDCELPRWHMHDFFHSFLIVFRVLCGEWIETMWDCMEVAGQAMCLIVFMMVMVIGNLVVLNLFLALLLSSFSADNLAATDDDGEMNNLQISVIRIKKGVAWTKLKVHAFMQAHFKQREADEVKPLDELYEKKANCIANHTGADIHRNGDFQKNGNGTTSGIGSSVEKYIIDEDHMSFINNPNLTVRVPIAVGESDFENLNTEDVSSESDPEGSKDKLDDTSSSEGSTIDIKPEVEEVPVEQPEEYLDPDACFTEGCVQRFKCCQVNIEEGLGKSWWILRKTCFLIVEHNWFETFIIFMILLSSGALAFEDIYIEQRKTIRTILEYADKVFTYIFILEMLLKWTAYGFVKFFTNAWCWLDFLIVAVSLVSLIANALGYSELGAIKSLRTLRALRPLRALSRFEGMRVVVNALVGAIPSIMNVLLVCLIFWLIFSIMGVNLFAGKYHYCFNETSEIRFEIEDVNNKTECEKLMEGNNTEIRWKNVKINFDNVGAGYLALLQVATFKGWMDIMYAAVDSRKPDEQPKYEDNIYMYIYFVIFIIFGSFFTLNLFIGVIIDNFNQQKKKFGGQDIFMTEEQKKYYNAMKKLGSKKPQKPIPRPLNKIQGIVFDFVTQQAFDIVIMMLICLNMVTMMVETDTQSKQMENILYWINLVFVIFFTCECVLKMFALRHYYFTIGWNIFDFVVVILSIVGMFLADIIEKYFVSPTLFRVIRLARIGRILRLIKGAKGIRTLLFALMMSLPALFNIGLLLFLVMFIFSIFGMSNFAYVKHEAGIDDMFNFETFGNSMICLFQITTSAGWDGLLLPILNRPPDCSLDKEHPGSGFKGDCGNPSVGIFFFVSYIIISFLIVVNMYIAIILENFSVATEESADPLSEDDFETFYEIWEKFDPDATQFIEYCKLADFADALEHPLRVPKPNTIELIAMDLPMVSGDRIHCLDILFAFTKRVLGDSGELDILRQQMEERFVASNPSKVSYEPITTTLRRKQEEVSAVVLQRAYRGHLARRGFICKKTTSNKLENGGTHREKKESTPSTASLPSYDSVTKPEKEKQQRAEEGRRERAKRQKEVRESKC

For COC(F)(F)c1nnc2cnc(-c3ccc(O[C@H](C4CC4)C(F)(F)F)nc3)cn12 (single isomer, unassigned) [Compound 5], the inhibition at 1 µM was over 70%.
Compound COC(F)(F)c1nnc2cnc(-c3ccc(O[C@@H](C4CC4)C(F)(F)F)nc3)cn12 (single isomer, unassigned) [Compound 6] has an inhibition at 1 µM of over 70%.
Work on COC(F)(F)c1nnc2cnc(-c3ccc(O[C@H](C)C(F)F)nc3)cn12 (single isomer, unassigned) [Compound 9] yielded an inhibition at 1 µM of over 70%.
With COC(F)(F)c1nnc2cnc(-c3ccc(O[C@@H](C)C(F)F)nc3)cn12 (single isomer, unassigned) [Compound 10] the inhibition at 1 µM was over 70%.
For CC[C@@H](Oc1ccc(-c2cn3c(C(F)(F)OC)nnc3cn2)cn1)C(F)(F)F (single isomer, unassigned) [Compound 13], the inhibition at 1 µM was over 70%.
CC[C@H](Oc1ccc(-c2cn3c(C(F)(F)OC)nnc3cn2)cn1)C(F)(F)F (single isomer, unassigned) [Compound 14] gave an inhibition at 1 µM of over 70%.
With COC(F)(F)c1nnc2cnc(-c3ccc(O[C@H](C)C(C)(F)F)nc3)cn12 (single isomer, unassigned) [Compound 15] the inhibition at 1 µM was over 70%.
For COC(F)(F)c1nnc2cnc(-c3ccc(O[C@@H](C)C(C)(F)F)nc3)cn12 (single isomer, unassigned) [Compound 16], the inhibition at 1 µM was 30 to 70%.
CCOC(F)(F)c1nnc2cnc(-c3ccc(O[C@H](CC)C(F)(F)F)nc3)cn12 (single isomer, unassigned) [Compound 19] showed an inhibition at 1 µM of over 70%.
CCOC(F)(F)c1nnc2cnc(-c3ccc(O[C@@H](CC)C(F)(F)F)nc3)cn12 (single isomer, unassigned) [Compound 20] was tested, and the inhibition at 1 µM was over 70%.
In the case of CCOC(F)(F)c1nnc2cnc(-c3ccc(O[C@H](C)C(F)F)nc3)cn12 (single isomer, unassigned) [Compound 23], the inhibition at 1 µM is reported as over 70%.
CCOC(F)(F)c1nnc2cnc(-c3ccc(O[C@@H](C)C(F)F)nc3)cn12 (single isomer, unassigned) [Compound 24] showed an inhibition at 1 µM of over 70%.
In the case of CCOC(F)(F)c1nnc2cnc(-c3ccc(O[C@H](C(C)C)C(F)(F)F)nc3)cn12 (single isomer, unassigned) [Compound 25], the inhibition at 1 µM is reported as over 70%.
CCOC(F)(F)c1nnc2cnc(-c3ccc(O[C@@H](C(C)C)C(F)(F)F)nc3)cn12 (single isomer, unassigned) [Compound 26] showed an inhibition at 1 µM of 30 to 70%.
Compound COC(F)(F)c1nnc2cnc(-c3ccc(O[C@@H](C(C)C)C(F)(F)F)nc3)cn12 (single isomer, unassigned) [Compound 27] has an inhibition at 1 µM of over 70%.
In the case of COC(F)(F)c1nnc2cnc(-c3ccc(O[C@H](C(C)C)C(F)(F)F)nc3)cn12 (single isomer, unassigned) [Compound 28], the inhibition at 1 µM is reported as over 70%.
Work on CCOC(F)(F)c1nnc2cnc(-c3ccc(O[C@H](C4CC4)C(F)(F)F)nc3)cn12 (single isomer, unassigned) [Compound 29] yielded an inhibition at 1 µM of over 70%.
Work on CCOC(F)(F)c1nnc2cnc(-c3ccc(O[C@@H](C4CC4)C(F)(F)F)nc3)cn12 (single isomer, unassigned) [Compound 30] yielded an inhibition at 1 µM of over 70%.
C[C@@H](Oc1ccc(-c2cn3c(C(F)(F)OC4CC4)nnc3cn2)cn1)C(F)(F)F [Compound 1, (R)-3-(cyclopropoxydifluoromethyl)-6-(6-((1,1,1-trifluoropropan-2-yl)oxy)pyridin-3-yl)-[1,2,4]triazolo[4,3-a]pyrazine] was tested, and the inhibition at 1 µM was over 70%.
In the case of C[C@H](Oc1ccc(-c2cn3c(C(F)(F)OC4CC4)nnc3cn2)cn1)C(F)(F)F [Compound 2, (S)-3-(cyclopropoxydifluoromethyl)-6-(6-((1,1,1-trifluoropropan-2-yl)oxy)pyridine-3-yl)-[1,2,4]triazolo[4,3-a]pyrazine], the inhibition at 1 µM is reported as over 70%.
With CCOC(F)(F)c1nnc2cnc(-c3ccc(O[C@@H](C)C(F)(F)F)nc3)cn12 [Compound 3, (S)-3-(ethoxydifluoromethyl)-6-(6-((1,1,1-trifluoropropan-2-yl)oxy)pyridin-3-yl)-[1,2,4]triazolo[4,3-a]pyrazine] the inhibition at 1 µM was over 70%.
CCOC(F)(F)c1nnc2cnc(-c3ccc(OC(C4CC4)C(F)(F)F)nc3)cn12 (stereo not drawn) [Compound 4, 6-(6-(1-cyclopropyl-2,2,2-trifluoroethoxy)pyridin-3-yl)-3-(ethoxydifluoromethyl)-[1,2,4]triazolo[4,3-a]pyrazine] gave an inhibition at 1 µM of over 70%.
In the case of COC(F)(F)c1nnc2cnc(-c3ccc(OC(C(C)C)C(F)(F)F)nc3)cn12 (stereo not drawn) [Compound 7, 3-(difluoro(methoxy)methyl)-6-(6-((1,1,1-trifluoro-3-methylbutan-2-yl)oxy)pyridin-3-yl)-[1,2,4]triazolo[4,3-a]pyrazine], the inhibition at 1 µM is reported as over 70%.
With CCCOC(F)(F)c1nnc2cnc(-c3ccc(OCC(F)(F)F)nc3)cn12 [Compound 8, 3-[difluoro(propoxy)methyl]-6-[6-(2,2,2-trifluoroethoxy)-3-pyridyl]-[1,2,4]triazolo[4,3-a]pyrazine] the inhibition at 1 µM was over 70%.
CC(C)OC(F)(F)c1nnc2cnc(-c3ccc(OCC(F)(F)F)nc3)cn12 [Compound 11, 3-[difluoro(isopropoxy)methyl]-6-[6-(2,2,2-trifluoroethoxy)-3-pyridyl]-[1,2,4]triazolo[4,3-a]pyrazine] showed an inhibition at 1 µM of over 70%.
COC(F)(F)c1nnc2cnc(-c3ccc(OC4CC(F)(F)C4(F)F)nc3)cn12 (stereo not drawn) [Compound 12, 3-(difluoro(methoxy)methyl)-6-(6-(2,2,3,3-tetrafluorocyclobutoxy)pyridin-3-yl)-[1,2,4]triazolo[4,3-a]pyrazine] was tested, and the inhibition at 1 µM was over 70%.
For CCCOC(F)(F)c1nnc2cnc(-c3ccc(O[C@H](C)C(F)(F)F)nc3)cn12 [Compound 17, 3-[difluoro(propoxy)methyl]-6-[6-[(1R)-2,2,2-trifluoro-1-methyl-ethoxy]-3-pyridyl]-[1,2,4]triazolo[4,3-a]pyrazine], the inhibition at 1 µM was over 70%.
CC(C)OC(F)(F)c1nnc2cnc(-c3ccc(O[C@H](C)C(F)(F)F)nc3)cn12 [Compound 18, 3-[difluoro(isopropoxy)methyl]-6-[6-[(1R)-2,2,2-trifluoro-1-methyl-ethoxy]-3-pyridyl]-[1,2,4]triazolo[4,3-a]pyrazine] showed an inhibition at 1 µM of over 70%.
Work on CCCOC(F)(F)c1nnc2cnc(-c3ccc(O[C@@H](C)C(F)(F)F)nc3)cn12 [Compound 21, (S)-3-(difluoro(propoxy)methyl)-6-(6-((1,1,1-trifluoropropan-2-yl)oxy)pyridin-3-yl)-[1,2,4]triazolo[4,3-a]pyrazine] yielded an inhibition at 1 µM of over 70%.
Compound CC(C)OC(F)(F)c1nnc2cnc(-c3ccc(O[C@@H](C)C(F)(F)F)nc3)cn12 [Compound 22, (S)-3-(difluoro(isopropoxy)methyl)-6-(6-((1,1,1-trifluoropropan-2-yl)oxy)pyridin-3-yl)-[1,2,4]triazolo[4,3-a]pyrazine] has an inhibition at 1 µM of over 70%.
